Measurements as given in the supplement of paper PMC10307832.

Tests used:
Assay in all cases: relative viability (nuclei count vs DMSO), 5 days (fraction); higher = more cells survive
[1] = compound: COc1cc2nc(N3CCCN(C)CC3)nc(NC3CCN(Cc4ccccc4)CC3)c2cc1OC + C[C@@H](Oc1cc(-c2cnn(C3CCNCC3)c2)cnc1N)c1c(Cl)ccc(F)c1Cl [Crizotinib] (partner 1 µM)
Method in brief: (§1)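 One day after seeding in 1536-well plates, lung cancer cell lines were dosed by pin tool. Dosing was either single-drug or a fixed anchor-drug dose plus five library-drug doses (not always all listed) in √10 steps. After 5 days, nuclei were stained in one fix-and-stain step and counted on 4× images, and relative viability is the nuclei count of treated wells over that of vehicle wells, given as the median of duplicate plates.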

[2] = compound: COc1cc2nc(N3CCCN(C)CC3)nc(NC3CCN(Cc4ccccc4)CC3)c2cc1OC + C[C@]1(O)C[C@@H](c2nc(-c3ccc4ccc(-c5ccccc5)nc4c3)c3c(N)nccn32)C1 [Linsitinib] (partner 1 µM)
Method in brief: as §1

[3] = compound: Cc1cc([C@@H](C)Nc2ccccc2C(=O)O)c2nc(N3CCOCC3)cc(=O)n2c1 [AZD6482] + Nc1ncn([C@H]2C[C@H](O)[C@@H](CO)O2)c(=O)n1 [Decitabine] (partner 2 µM)
Method in brief: as §1

[4] = compound: Cc1cc([C@@H](C)Nc2ccccc2C(=O)O)c2nc(N3CCOCC3)cc(=O)n2c1 [AZD6482] + CC(=O)c1c(C)c2cnc(Nc3ccc(N4CCNCC4)cn3)nc2n(C2CCCC2)c1=O [Palbociclib] (partner 0.5 µM)
Method in brief: as §1

Cell Line	relative viability ([1]; first compound 0.2 µM)	relative viability ([1]; first compound 0.6325 µM)	relative viability ([1]; first compound 2 µM)	relative viability ([1]; first compound 6.325 µM)	relative viability ([2]; first compound 0.2 µM)	relative viability ([2]; first compound 0.6325 µM)	relative viability ([2]; first compound 2 µM)	relative viability ([2]; first compound 6.325 µM)	relative viability ([3]; first compound 0.08 µM)	relative viability ([3]; first compound 0.253 µM)	relative viability ([3]; first compound 0.8 µM)	relative viability ([3]; first compound 2.53 µM)	relative viability ([3]; first compound 8 µM)	relative viability ([4]; first compound 0.08 µM)	relative viability ([4]; first compound 0.253 µM)	relative viability ([4]; first compound 0.8 µM)	relative viability ([4]; first compound 2.53 µM)	relative viability ([4]; first compound 8 µM)
PC-14	0.932	0.883	1.08	0.83	0.923	0.91	1.02	0.865	0.225	0.174	0.273	0.315	0.271	0.447	0.524	0.578	0.503	0.519
RERF-LC-KJ	0.721	0.82	0.872	0.853	0.883	0.856	0.894	0.886	0.722	0.78	0.601	0.592	0.665	0.961	0.981	1.03	0.838	0.808
SK-LU-1	0.858	0.943	0.92	0.536	0.996	1.07	0.886	0.724		0.567	0.627	0.549	0.425		0.346	0.376	0.315	0.387
SK-MES-1	0.97	0.962	1.04	1.06	1	1	1.08	1.01	0.331	0.279	0.396	0.28	0.275	0.282	0.293	0.295	0.282	0.301
SW 1573	0.893	0.845	0.88	0.819	0.74	0.806	0.768	0.758	0.545	0.449	0.434	0.332	0.454	0.296	0.351	0.328	0.282	0.218
